# Source: ChEMBL document CHEMBL6074634, “Design, synthesis, and evaluation of novel oxyacanthine derivatives for anti-SARS-CoV-2 activity” (Bioorg Med Chem Lett, 2024)
# Test system: SARS-CoV-2
# Assay: Antiviral activity against SARS CoV-2 infected in african green monkey Vero E6 cells assessed as inhibition of viral growth preincubated with cells for 1 hr followed by viral addition for 1 hr with subsequent compound washout and measured after 24 hrs of compound replacement by qRT-PCR analysis
# Type: functional, organism-based
# Conditions: Severe acute respiratory syndrome coronavirus 2, Vero C1008
row,SMILES,IC50 [nM]
1,COc1cc2c3cc1Oc1c(OC)c(OC)cc4c1[C@H](Cc1ccc(cc1)Oc1cc(ccc1C1CC1)C[C@H]3N(C)CC2)N(C)CC4,2570
2,COc1ccc(NC(=O)c2ccc3cc2Oc2ccc(cc2)C[C@H]2c4c(cc(OC)c(OC)c4Oc4cc5c(cc4OC)CCN(C)[C@@H]5C3)CCN2C)cc1,620
3,COc1cc2c3cc1Oc1c(OC)c(OC)cc4c1[C@H](Cc1ccc(cc1)Oc1cc(ccc1C(=O)Nc1ccccc1)C[C@H]3N(C)CC2)N(C)CC4,2820
4,C=CC(=O)Nc1ccc2cc1Oc1ccc(cc1)C[C@H]1c3c(cc(OC)c(OC)c3Oc3cc4c(cc3OC)CCN(C)[C@@H]4C2)CCN1C,1850
5,COc1cc2c3cc1Oc1c(OC)c(OC)cc4c1[C@H](Cc1ccc(cc1)Oc1cc(ccc1C(=O)NC1CCCC1)C[C@H]3N(C)CC2)N(C)CC4,1490
6,COc1cc2c3cc1Oc1c(OC)c(OC)cc4c1[C@H](Cc1ccc(cc1)Oc1cc(cc([N+](=O)[O-])c1)C[C@H]3N(C)CC2)N(C)CC4,720
7,COc1cc2c3cc1Oc1c(OC)c(OC)cc4c1[C@H](Cc1ccc(cc1)Oc1cc(ccc1C(=O)NC1CC1)C[C@H]3N(C)CC2)N(C)CC4,890
8,COc1cc2c3cc1Oc1c(OC)c(OC)cc4c1[C@H](Cc1ccc(cc1)Oc1cc(ccc1N)C[C@H]3N(C)CC2)N(C)CC4,> 5000
9,COc1cc2c3cc1Oc1c(OC)c(OC)cc4c1[C@H](Cc1ccc(cc1)Oc1cc(ccc1C(=O)N1CCCCC1)C[C@H]3N(C)CC2)N(C)CC4,1600
10,COc1cc2c3cc1Oc1c(OC)c(OC)cc4c1[C@H](Cc1ccc(cc1)Oc1cccc(c1)C[C@H]3N(C)CC2)N(C)CC4,930
11,COc1cc2c3cc1Oc1c(OC)c(OC)cc4c1[C@H](Cc1ccc(cc1)Oc1cc(cc(N)c1O)C[C@H]3N(C)CC2)N(C)CC4,> 5000
12,COc1cc2c3cc1Oc1c(OC)c(OC)cc4c1[C@H](Cc1ccc(cc1)Oc1cc(ccc1C(C)=O)C[C@H]3N(C)CC2)N(C)CC4,1480
13,C=C(C)c1ccc2cc1Oc1ccc(cc1)C[C@H]1c3c(cc(OC)c(OC)c3Oc3cc4c(cc3OC)CCN(C)[C@@H]4C2)CCN1C,1090
14,COc1cc2c3cc1Oc1c(OC)c(OC)cc4c1[C@H](Cc1ccc(cc1)Oc1cc(ccc1C(=O)Nc1ccc(C(F)(F)F)cc1)C[C@H]3N(C)CC2)N(C)CC4,2780
15,COC(=O)c1ccc2cc1Oc1ccc(cc1)C[C@H]1c3c(cc(OC)c(OC)c3Oc3cc4c(cc3OC)CCN(C)[C@@H]4C2)CCN1C,840
16,COc1cc2c3cc1Oc1c(OC)c(OC)cc4c1[C@H](Cc1ccc(cc1)Oc1cc(ccc1C)C[C@H]3N(C)CC2)N(C)CC4,2450
17,COc1cc2c3cc1Oc1c(OC)c(OC)cc4c1[C@H](Cc1ccc(cc1)Oc1cc(ccc1C(=O)NC15CC6CC(CC(C6)C1)C5)C[C@H]3N(C)CC2)N(C)CC4,1060
18,COc1cc2c3cc1Oc1c(OC)c(OC)cc4c1[C@H](Cc1ccc(cc1)Oc1cc(ccc1NCc1ccccc1)C[C@H]3N(C)CC2)N(C)CC4,> 5000
19,COc1cc2c3cc1Oc1c(OC)c(OC)cc4c1[C@H](Cc1ccc(cc1)Oc1cc(ccc1C(=O)NC(C)C)C[C@H]3N(C)CC2)N(C)CC4,1020
20,COc1cc2c3cc1Oc1c(OC)c(OC)cc4c1[C@H](Cc1ccc(cc1)Oc1cc(ccc1C(=O)O)C[C@H]3N(C)CC2)N(C)CC4,> 5000
21,CNc1ccc2cc1Oc1ccc(cc1)C[C@H]1c3c(cc(OC)c(OC)c3Oc3cc4c(cc3OC)CCN(C)[C@@H]4C2)CCN1C,> 5000
22,COc1cc2c3cc1Oc1c(OC)c(OC)cc4c1[C@H](Cc1ccc(cc1)Oc1cc(ccc1C(N)=O)C[C@H]3N(C)CC2)N(C)CC4,550
23,COc1cc2c3cc1Oc1c(OC)c(OC)cc4c1[C@H](Cc1ccc(cc1)Oc1cc(ccc1C(=O)NCCOCCO)C[C@H]3N(C)CC2)N(C)CC4,2740
24,COc1cc2c3cc1Oc1c(OC)c(OC)cc4c1[C@H](Cc1ccc(cc1)Oc1cc(ccc1C(=O)Nc1cccnc1)C[C@H]3N(C)CC2)N(C)CC4,940
25,COc1cc2c3cc1Oc1c(OC)c(OC)cc4c1[C@H](Cc1ccc(cc1)OC1C=C(Cc5[nH]c(=O)oc51)C[C@H]3N(C)CC2)N(C)CC4 (stereo not given in full),670
26,CCCCCNC(=O)c1ccc2cc1Oc1ccc(cc1)C[C@H]1c3c(cc(OC)c(OC)c3Oc3cc4c(cc3OC)CCN(C)[C@@H]4C2)CCN1C,2520
27,COc1cc2c3cc1Oc1c(OC)c(OC)cc4c1[C@H](Cc1ccc(cc1)Oc1cc(ccc1C(=O)NC1CCC1)C[C@H]3N(C)CC2)N(C)CC4,530
28,CNC(=O)c1ccc2cc1Oc1ccc(cc1)C[C@H]1c3c(cc(OC)c(OC)c3Oc3cc4c(cc3OC)CCN(C)[C@@H]4C2)CCN1C,2510
29,COc1cc2c3cc1Oc1c(OC)c(OC)cc4c1[C@H](Cc1ccc(cc1)Oc1cc(cc([N+](=O)[O-])c1O)C[C@H]3N(C)CC2)N(C)CC4,> 5000
30,COc1cc2c3cc1Oc1c(OC)c(OC)cc4c1[C@H](Cc1ccc(cc1)Oc1cc(ccc1O)C[C@H]3N(C)CC2)N(C)CC4 [AROMOLINE],14500
